pEC50: −log10 of the molar value.
Columns and labels:
human D1 [1] = molecular target: T1, human D1 (Homo sapiens, UniProt P21728); assay: D1R GS-mediated GS-cAMP accumulation assay; conditions: for GS-cAMP accumulation activity in words: D1R GloSensor assay
human D1 [2] = molecular target: T1, human D1; assay: BRET β-arrestin2 recruitment assay; conditions: for β-arrestin2 recruitment activity in words: D1R BRET assay
MOR [3] = molecular target: T2, MOR (Homo sapiens, UniProt P35372); conditions: in vitro; cited from earlier work
MOR [4] = molecular target: T2, MOR; conditions: in vitro; cited from earlier work; remark: listed apart in the source
[5] = Mouse pharmacokinetic study, plasma and brain; assay type: in vivo, male Swiss Albino mice; conditions: mice
[6] = 50 mg/kg intraperitoneal injection

T1 sequence (P21728 whole entry): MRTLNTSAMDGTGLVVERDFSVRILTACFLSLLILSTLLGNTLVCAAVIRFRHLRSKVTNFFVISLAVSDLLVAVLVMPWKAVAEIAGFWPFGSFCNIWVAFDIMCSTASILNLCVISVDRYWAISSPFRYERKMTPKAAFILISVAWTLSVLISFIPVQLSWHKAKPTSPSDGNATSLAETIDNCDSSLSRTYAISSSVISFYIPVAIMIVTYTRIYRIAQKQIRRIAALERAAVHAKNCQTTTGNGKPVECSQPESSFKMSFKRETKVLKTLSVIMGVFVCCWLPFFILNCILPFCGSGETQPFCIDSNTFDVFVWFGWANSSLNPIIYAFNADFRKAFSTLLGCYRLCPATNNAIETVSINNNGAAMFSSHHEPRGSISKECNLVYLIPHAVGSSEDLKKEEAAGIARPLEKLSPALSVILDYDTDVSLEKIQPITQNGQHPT
T2 sequence (P35372 whole entry): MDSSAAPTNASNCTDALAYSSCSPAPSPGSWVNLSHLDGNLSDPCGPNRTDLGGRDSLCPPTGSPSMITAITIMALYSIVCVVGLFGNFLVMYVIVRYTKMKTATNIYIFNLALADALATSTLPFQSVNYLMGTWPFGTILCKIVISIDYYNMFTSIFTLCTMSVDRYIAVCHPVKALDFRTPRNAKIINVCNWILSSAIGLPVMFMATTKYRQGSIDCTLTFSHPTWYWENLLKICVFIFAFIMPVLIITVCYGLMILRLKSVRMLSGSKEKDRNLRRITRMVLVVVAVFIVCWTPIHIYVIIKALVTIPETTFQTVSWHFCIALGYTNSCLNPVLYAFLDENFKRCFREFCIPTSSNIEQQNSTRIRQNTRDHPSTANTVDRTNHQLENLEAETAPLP

**Q.** With `FC(F)(F)c1cc(-c2cccc3nccn23)ccc1Oc1nccc2occc12` [Compound 42, 4-(4-(Imidazo[1,2-a]pyridin-5-yl)-2-(trifluoromethyl)phenoxy)-furo[3,2-c]pyridine] as the compound, how does the “GS-cAMP accumulation activity in words” value (human D1 [1]) read?
**A.** inactive in both G protein and β-arrestin2 recruitment assays

**Q.** And the “β-arrestin2 recruitment activity in words” value (human D1 [2])?
**A.** inactive in both G protein and β-arrestin2 recruitment assays

**Q.** Which “GS-cAMP accumulation activity in words” value (human D1 [1]) does the source give for `FC(F)(F)c1cc(Oc2cc(N3CCCCC3)ccn2)ccc1-c1cccc2nccn12` [Compound 50, 5-(4-((4-(Piperidin-1-yl)pyridin-2-yl)oxy)-2-(trifluoromethyl)-phenyl)imidazo[1,2-a]pyridine] here?
**A.** inactive in both the GS and β-arrestin2 pathways

**Q.** And the “β-arrestin2 recruitment activity in words” value (human D1 [2])?
**A.** inactive in both the GS and β-arrestin2 pathways

**Q.** With `Cc1cc(Oc2nccc3occc23)cc(C)c1-c1cccc2nccn12` [Compound 39, 4-(4-(Imidazo[1,2-a]pyridin-5-yl)-3,5-dimethylphenoxy)furo[3,2-c]pyridine] as the compound, how does the “GS-cAMP accumulation activity in words” value (human D1 [1]) read?
**A.** completely inactive

**Q.** And the “β-arrestin2 recruitment activity in words” value (human D1 [2])?
**A.** completely inactive

**Q.** With `Cc1ncc2nccn2c1-c1ccc(Oc2nccc3occc23)c(C(F)(F)F)c1` [Compound 18, 4-(4-(6-Methylimidazo[1,2-a]pyrazin-5-yl)-2-(trifluoromethyl)-phenoxy)furo[3,2-c]pyridine] as the compound, how does the “GS-cAMP accumulation activity in words” value (human D1 [1]) read?
**A.** completely devoid of activity in both the G protein and β-arrestin2 recruitment assays

**Q.** And the “β-arrestin2 recruitment activity in words” value (human D1 [2])?
**A.** completely devoid of activity in both the G protein and β-arrestin2 recruitment assays

**Q.** For `COc1ccsc1CNCC[C@@]1(c2ccccn2)CCOC2(CCCC2)C1` [TRV130], which “EMAX, activation of G protein signaling” value (MOR [3]) is on record?
**A.** 84%

**Q.** What about the “EMAX, recruiting β-arrestin” value (MOR [4]) of the same compound?
**A.** 15%

**Q.** For `Cc1cc(Oc2ncccc2Br)ccc1-c1c(C)ncc2nccn12` [Compound 34, 5-(4-((3-bromopyridin-2-yl)oxy)-2-methylphenyl)-6-methylimidazo[1,2-a]pyrazine], which “GS-cAMP accumulation activity in words” value (human D1 [1]) is on record?
**A.** completely inactive in both pathways

**Q.** And the “β-arrestin2 recruitment activity in words” value (human D1 [2])?
**A.** completely inactive in both pathways

**Q.** For `Nc1cc(Oc2nccc3occc23)ccc1-c1cccc2nccn12` [Compound 40, 5-(Furo[3,2-c]pyridin-4-yloxy)-2-(imidazo[1,2-a]pyridin-5-yl)-aniline], which “tolerability / clinical signs” value ([5]; 50 mg/kg intraperitoneal) is on record?
**A.** well tolerated and no clinical signs were observed

**Q.** And the “peak concentration in the brain” value [5, 6]?
**A.** approximately 100 μM

**Q.** And the “peak concentration in the plasma” value [5, 6]?
**A.** approximately 100 μM

**Q.** With `Cc1cc(Oc2nccc3occc23)ccc1-c1c(C)cnnc1C` [Compound 9, 4-(4-(3,5-Dimethylpyridazin-4-yl)-3-methylphenoxy)furo[3,2-c]-pyridine] as the compound, how does the pEC50 (human D1 [1]) read?
**A.** 9.00

**Q.** What about the “β-arrestin2 recruitment activity in words” value (human D1 [2]) of the same compound?
**A.** not active in the β-arrestin2 recruitment assay

**Q.** For `Cc1cc(Oc2nccc3occc23)ccc1-c1c(C)nc2cnccn12` [Compound 4, 4-(3-Methyl-4-(2-methylimidazo[1,2-a]pyrazin-3-yl)phenoxy)-furo[3,2-c]pyridine], which “fold reduced potency in the GS-cAMP accumulation assay compared to 1” value (human D1 [1]; compared to compound 1) is on record?
**A.** 23 fold

**Q.** What about the “fold reduction in potency for β-arrestin2 recruitment compared to 1” value (human D1 [2]; compared to compound 1) of the same compound?
**A.** 22 fold

Reference: paper PMC6688508 (Journal of medicinal chemistry, 2019)
